# Reference: ChEMBL document CHEMBL3885861, “Open TG-GATES”
# Species: Rattus norvegicus
# Assay: Open TG-GATES - Regimen: Single
# Format: toxicity, organism-based, Sprague-Dawley
# Parameters: regimen Single, gender Male, age 6 weeks
# Conditions: in vivo, po, 0 mg/kg, route gavage, dose level Control; for APTT / Bas / Eos / Fbg / Hb / Ht / Lym / MCH / MCHC / MCV / Mono / Neu / PT / Plat / RBC / Ret: tissue Blood; for KIDNEY_L / KIDNEY_R / KIDNEY_TOTAL: tissue Kidney; for LIVER: tissue Liver; for ALP / ALT / AST / BUN / CRE / Ca / Cl / DBIL / GLC / IP / K / LDH / Na / PL / RALB / TBIL / TC / TG / TP / gamma-GTP: tissue Plasma
smiles,measurement,setting,value
COc1ccc2[nH]c([S+]([O-])Cc3ncc(C)c(OC)c3C)nc2c1 (stereo not drawn) [OMEPRAZOLE],TERMINAL_BW,3 h,218.5 g
same,APTT,3 h,20.5 s
same,Bas,3 h,0%
same,Eos,3 h,1%
same,Fbg,3 h,206.4 mg/dL
same,Hb,3 h,13 g/dL
same,Ht,3 h,38.5%
same,Lym,3 h,77.8%
same,MCH,3 h,21.4 pg
same,MCHC,3 h,33.9%
same,MCV,3 h,63.1 fL
same,Mono,3 h,2.4%
same,Neu,3 h,18.6%
same,PT,3 h,12.5 s
same,Plat,3 h,122.7 x10_4/uL
same,RBC,3 h,610.2 x10_4/ul
same,Ret,3 h,7.2%
same,KIDNEY_L,3 h,0.9 g
same,KIDNEY_R,3 h,0.9 g
same,KIDNEY_TOTAL,3 h,1.9 g
same,LIVER,3 h,9.9 g
same,ALP,3 h,855.8 IU/L
same,ALT,3 h,33.2 IU/L
same,AST,3 h,68.4 IU/L
same,BUN,3 h,12.6 mg/dL
same,CRE,3 h,0.4 mg/dL
same,Ca,3 h,10.8 mg/dL
same,Cl,3 h,100.6 meq/L
same,DBIL,3 h,0.064 mg/dL
same,GLC,3 h,191.8 mg/dL
same,IP,3 h,8.3 mg/dL
same,K,3 h,3.8 meq/L
same,LDH,3 h,171.2 IU/L
same,Na,3 h,140.4 meq/L
same,PL,3 h,130.8 mg/dL
same,RALB,3 h,3.1 g/dL
same,TBIL,3 h,0.1 mg/dL
same,TC,3 h,69.4 mg/dL
same,TG,3 h,59.4 mg/dL
same,TP,3 h,5.3 g/dL
same,gamma-GTP,3 h,1 IU/L
same,TERMINAL_BW,6 h,218.1 g
same,APTT,6 h,19.3 s
same,Bas,6 h,0%
same,Eos,6 h,0.8%
same,Fbg,6 h,220.4 mg/dL
same,Hb,6 h,13.6 g/dL
same,Ht,6 h,39.7%
same,Lym,6 h,72.4%
same,MCH,6 h,21.4 pg
same,MCHC,6 h,34.1%
same,MCV,6 h,62.7 fL
same,Mono,6 h,3.8%
same,Neu,6 h,22.2%
same,PT,6 h,12.6 s
same,Plat,6 h,123.4 x10_4/uL
same,RBC,6 h,634.2 x10_4/ul
same,Ret,6 h,7.1%
same,KIDNEY_L,6 h,1 g
same,KIDNEY_R,6 h,1 g
same,KIDNEY_TOTAL,6 h,1.9 g
same,LIVER,6 h,9.9 g
same,ALP,6 h,923.8 IU/L
same,ALT,6 h,32.6 IU/L
same,AST,6 h,66 IU/L
same,BUN,6 h,11 mg/dL
same,CRE,6 h,0.3 mg/dL
same,Ca,6 h,10.7 mg/dL
same,Cl,6 h,100.8 meq/L
same,DBIL,6 h,0.07 mg/dL
same,GLC,6 h,201 mg/dL
same,IP,6 h,8.8 mg/dL
same,K,6 h,3.8 meq/L
same,LDH,6 h,181.6 IU/L
same,Na,6 h,140 meq/L
same,PL,6 h,141.4 mg/dL
same,RALB,6 h,3.3 g/dL
same,TBIL,6 h,0.1 mg/dL
same,TC,6 h,73.4 mg/dL
same,TG,6 h,81.2 mg/dL
same,TP,6 h,5.4 g/dL
same,gamma-GTP,6 h,1.8 IU/L
same,TERMINAL_BW,9 h,218.2 g
same,APTT,9 h,20.9 s
same,Bas,9 h,0%
same,Eos,9 h,1%
same,Fbg,9 h,212.8 mg/dL
same,Hb,9 h,13.3 g/dL
same,Ht,9 h,38.6%
same,Lym,9 h,78%
same,MCH,9 h,21.5 pg
same,MCHC,9 h,34.3%
same,MCV,9 h,62.6 fL
same,Mono,9 h,3%
same,Neu,9 h,17.4%
same,PT,9 h,13.1 s
same,Plat,9 h,119.3 x10_4/uL
same,RBC,9 h,615.6 x10_4/ul
same,Ret,9 h,7.4%
same,KIDNEY_L,9 h,0.9 g
same,KIDNEY_R,9 h,1 g
same,KIDNEY_TOTAL,9 h,1.9 g
same,LIVER,9 h,9.1 g
same,ALP,9 h,764.2 IU/L
same,ALT,9 h,28 IU/L
same,AST,9 h,59.2 IU/L
same,BUN,9 h,11.4 mg/dL
same,CRE,9 h,0.3 mg/dL
same,Ca,9 h,10.7 mg/dL
same,Cl,9 h,101 meq/L
same,DBIL,9 h,0.06 mg/dL
same,GLC,9 h,188.4 mg/dL
same,IP,9 h,9.4 mg/dL
same,K,9 h,3.9 meq/L
same,LDH,9 h,175.4 IU/L
same,Na,9 h,140.4 meq/L
same,PL,9 h,122.2 mg/dL
same,RALB,9 h,3.3 g/dL
same,TBIL,9 h,0.1 mg/dL
same,TC,9 h,66.4 mg/dL
same,TG,9 h,54.6 mg/dL
same,TP,9 h,5.5 g/dL
same,gamma-GTP,9 h,1.4 IU/L
same,TERMINAL_BW,24 h,234.9 g
same,APTT,24 h,20.7 s
same,Bas,24 h,0%
same,Eos,24 h,1%
same,Fbg,24 h,229.6 mg/dL
same,Hb,24 h,13.2 g/dL
same,Ht,24 h,38.7%
same,Lym,24 h,78.6%
same,MCH,24 h,21.7 pg
same,MCHC,24 h,34.1%
same,MCV,24 h,63.6 fL
same,Mono,24 h,2.6%
same,Neu,24 h,17.2%
same,PT,24 h,12.1 s
same,Plat,24 h,118.9 x10_4/uL
same,RBC,24 h,608 x10_4/ul
same,Ret,24 h,6.6%
same,KIDNEY_L,24 h,1 g
same,KIDNEY_R,24 h,1 g
same,KIDNEY_TOTAL,24 h,2 g
same,LIVER,24 h,11.8 g
same,ALP,24 h,979.4 IU/L
same,ALT,24 h,35.4 IU/L
same,AST,24 h,62.2 IU/L
same,BUN,24 h,17.4 mg/dL
same,CRE,24 h,0.4 mg/dL
same,Ca,24 h,11.1 mg/dL
same,Cl,24 h,101.2 meq/L
same,DBIL,24 h,0.094 mg/dL
same,GLC,24 h,216 mg/dL
same,IP,24 h,7.7 mg/dL
same,K,24 h,4.2 meq/L
same,LDH,24 h,192 IU/L
same,Na,24 h,140.6 meq/L
same,PL,24 h,151.6 mg/dL
same,RALB,24 h,3.4 g/dL
same,TBIL,24 h,0.1 mg/dL
same,TC,24 h,79.6 mg/dL
same,TG,24 h,109 mg/dL
same,TP,24 h,5.5 g/dL
